What was measured:
[1] = tested on: Human androgen dependent LNCaP cells; experiment: LNCaP xenograft with hormonal ablation (Example 7); type: in vivo, athymic mice
Experimental: Human androgen dependent LNCaP cells (2×10^6 cells/flank in both flanks) were implanted subcutaneously with an equal volume of Matrigel™ in forty athymic mice. These animals were followed with periodic bleedings until serum human PSA levels exceeded 100 ng/mL and tumor volume measurements exceeded 1000 mm^3 (approximately six weeks after implantation). All animals were then surgically castrated and were randomized into five treatment groups with 8-10 animals per group. One group of animals was not treated further (controls), while a second group immediately began daily intraperitoneal injection of 20 mg/kg/day squalamine (five days per week with a two day respite). A third group of animals began to receive squalamine (20 mg/kg/day squalamine, five days per week with a two day respite) when their serum human PSA levels reached values of 4-10 ng/mL. A fourth group of mice began squalamine treatment (20 mg/kg/day squalamine, five days per week with a two day respite)when serum human PSA values reached 20-40 ng/mL, and a fifth group began squalamine treatment when serum human PSA levels reached 100 ng/mL.
Similarly, the serum human PSA levels fell to undetectable levels with a nadir at two weeks after castration, but by week three the serum human PSA levels began to rise in all control animals. […] For animals treated with squalamine concomitant with the fall in human PSA after castration, six of ten animals were treated for 6-10 weeks. Three mice in this group never experienced a post-orchiectomy PSA nadir, and one mouse experienced an early death of unknown etiology. The remaining six animals in this group experienced a post-orchiectomy PSA nadir of less than 1 ng/mL and maintained this negligible level for the duration of squalamine therapy.
Tissue histology was carried out on the tumor masses (or the site of tumor implantation, in the instance of the animals which underwent successful squalamine treatment) to examine the distribution of integrins in these tissues. […] Thus, part of the mechanism by which squalamine successfully alters LNCaP tumor growth is by interfering with cellular integrin expression that is associated with tumor aggressiveness.

[2] = tested on: H460 human lung adenocarcinoma line; experiment: Nude mouse xenograft model of lung cancer with cisplatin, H460; type: in vivo; conditions: started on day 4 or 5, daily i.p.
Excerpt: Studies in a nude mouse xenograft model of lung cancer have been carried out using several human lung cancer lines which differ in their growth rate. […] The experimental lung cancer model design involves subcutaneous injection of 5×10^6 tumor cells followed by a single injection of the chemotherapeutic drug on day 3 or 4. […] Groups of mice receiving squalamine alone started receiving the aminosterol on the same day as aminosterol treatment in the combination chemotherapy groups. Tumor volumes were then determined at termination of the experiment and compared.

[3] = tested on: Syngeneic mammary carcinoma MCA-4 tumor cells; experiment: MCA-4 mammary carcinoma tumor growth delay with radiation; type: in vivo, C3Hf/Kam male mice
Experimental: Syngeneic mammary carcinoma MCA-4 tumor cells (5×10^5) were injected intramuscularly into the right legs of C3Hf/Kam male mice (4 months of age). When the tumors reached 6 mm in diameter, the mice were randomly assigned to receive: (a) no treatment, (b) squalamine alone (20 mg/kg/day b.i.d. for 11-14 days), (c) 15 Gy of gamma irradiation, or (d) squalamine plus 15 Gy of gamma rays. Tumor growth was followed until tumors reached at least 12 mm in diameter. The effect of squalamine on tumor radioresponse was determined by absolute and normalized tumor growth delays (AGD and NGD). AGD is defined as the time in days for tumors treated with radiation (or squalamine) to grow from 8 to 12 mm minus the time in days for untreated tumors to grow from 8-12 mm. NGD is defined as the time in days for tumors treated with both squalamine and radiation to grow from 8 to 12 mm minus the time in days for tumors treated with squalamine only to grow from 8 to 12 mm. An enhancement factor (EF) was determined as the ratio of NGD to AGD. The EF for squalamine with 15 Gy gamma rays calculated from the observed times for tumor growth (Table 8) is >1.5.

human NHE3 = target: T1, human NHE3 (Homo sapiens, UniProt P48764); experiment: NHE activity in PS 120 fibroblasts transfected with human NHE3 (BCECF pH change rate); type: cell-based
T1 construct: expressed in transfected cells; host or cells: PS 120 NHE-deficient fibroblasts
T1 sequence (P48764 26-834): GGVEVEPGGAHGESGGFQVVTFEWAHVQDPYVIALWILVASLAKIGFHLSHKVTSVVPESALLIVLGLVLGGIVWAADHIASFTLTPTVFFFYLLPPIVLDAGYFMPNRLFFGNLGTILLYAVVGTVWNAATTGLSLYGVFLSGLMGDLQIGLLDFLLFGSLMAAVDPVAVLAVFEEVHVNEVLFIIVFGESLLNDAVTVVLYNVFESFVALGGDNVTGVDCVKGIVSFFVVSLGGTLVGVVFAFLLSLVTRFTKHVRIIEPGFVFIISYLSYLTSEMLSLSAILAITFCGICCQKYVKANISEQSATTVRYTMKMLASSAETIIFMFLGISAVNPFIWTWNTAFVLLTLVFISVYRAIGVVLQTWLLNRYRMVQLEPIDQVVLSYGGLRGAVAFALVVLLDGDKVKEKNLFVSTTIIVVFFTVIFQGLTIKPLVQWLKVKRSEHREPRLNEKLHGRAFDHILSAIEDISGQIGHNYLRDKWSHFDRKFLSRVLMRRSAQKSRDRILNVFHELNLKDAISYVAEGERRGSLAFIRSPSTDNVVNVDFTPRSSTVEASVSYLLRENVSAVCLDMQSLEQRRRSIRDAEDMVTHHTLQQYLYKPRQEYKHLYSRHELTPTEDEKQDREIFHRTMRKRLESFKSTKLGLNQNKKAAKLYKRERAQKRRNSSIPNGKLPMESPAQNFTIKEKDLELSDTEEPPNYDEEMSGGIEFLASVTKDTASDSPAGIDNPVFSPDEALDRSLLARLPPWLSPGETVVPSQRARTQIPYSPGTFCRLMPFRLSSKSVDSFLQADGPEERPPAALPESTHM
Experimental: The following describes the test used to determine that squalamine inhibits NHE3, but not NHE1 or NHE2. NHE deficient fibroblast cells (PS 120) transfected with an individual human NHE gene were loaded with a pH sensitive dye 2′7′-bis(2-carboxyethyl)-5,6-carboxyfluorescein (BCECF). NHE activity was measured by spectrofluorometric methods using this dye and by amiloride sensitive isotopic ^22Na^+cellular uptake. The cells were acidified by exposure to ammonium chloride in the absence of sodium to eliminate sodium and deactivate the proton pumps. The ammonium chloride was washed out by exposing the cells to tetramethyl ammonium chloride in bicarbonate free medium. […] Sodium then was added back at various concentrations (see the abscissa of FIGS. 5a and 5b) to drive the antiporters (human NHE3 in FIG. 5a and human NHE1 in FIG. 5b). The antiporters were driven at different rates, as evidenced by the cellular pH change rate, depending on the amount of sodium added.
As noted above, it has been concluded that squalamine inhibits NHE3 and not NHE1. […] Such inhibitors affect only the absolute number of protons that can be secreted by the cell (i.e., “Vmax”), if one looks at the kinetic characteristics of the inhibition. […] Note the following Table 1, which correlates to data collected in the test of FIG. 5a.

NHE1 = NHE1 (Homo sapiens, UniProt P19634); experiment: NHE1 activity in unstimulated melanoma cells; type: cell-based; design: endogenous in cells
NHE1, sequence (P19634 whole entry, species assumed, canonical isoform): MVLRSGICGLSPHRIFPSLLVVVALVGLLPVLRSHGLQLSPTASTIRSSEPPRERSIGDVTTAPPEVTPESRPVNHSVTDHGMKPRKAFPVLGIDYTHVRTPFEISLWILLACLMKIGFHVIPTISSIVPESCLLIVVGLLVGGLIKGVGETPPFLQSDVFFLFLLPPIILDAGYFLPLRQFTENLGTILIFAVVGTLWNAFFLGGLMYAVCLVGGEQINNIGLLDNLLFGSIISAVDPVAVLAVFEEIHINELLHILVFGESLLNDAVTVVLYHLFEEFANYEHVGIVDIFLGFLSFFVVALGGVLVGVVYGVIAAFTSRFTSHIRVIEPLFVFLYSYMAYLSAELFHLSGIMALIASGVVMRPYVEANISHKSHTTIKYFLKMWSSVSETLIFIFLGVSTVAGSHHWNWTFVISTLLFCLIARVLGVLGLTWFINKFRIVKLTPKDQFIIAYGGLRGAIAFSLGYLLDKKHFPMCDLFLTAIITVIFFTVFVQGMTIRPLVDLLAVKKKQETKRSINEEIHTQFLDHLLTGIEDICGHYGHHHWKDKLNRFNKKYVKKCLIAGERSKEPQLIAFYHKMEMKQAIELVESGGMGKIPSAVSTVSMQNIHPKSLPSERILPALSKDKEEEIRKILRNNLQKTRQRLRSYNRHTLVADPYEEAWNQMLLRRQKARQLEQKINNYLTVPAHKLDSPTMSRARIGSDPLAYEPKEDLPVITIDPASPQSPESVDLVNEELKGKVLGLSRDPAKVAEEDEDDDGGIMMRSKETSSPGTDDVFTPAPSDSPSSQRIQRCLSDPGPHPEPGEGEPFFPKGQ
Experimental: The effect of squalamine on NHE activity was measured to determine which isoforms of NHE were affected by squalamine. NHE activity can be measured under various different cellular conditions. Acid loading a cell activates all of the antiporters and permits measurement of NHE. NHE activity also can be measured after growth factor stimulation of the cell. Additionally, the NHE activity can be measured when the cell is in an unstimulated state, because the antiporters, even if unstimulated, continue to function at a slow, but non-zero rate. In each of these cellular conditions, NHE activity usually is measured in the absence of bicarbonate.
NHE3 in particular is relatively resistant to inhibition by the amilorides.

[4] = tissue histology after successful squalamine treatment

Structure (SMILES): CC(C)[C@@H](CC[C@@H](C)[C@H]1CC[C@H]2[C@@H]3[C@H](O)C[C@H]4C[C@@H](NCCCNCCCCN)CC[C@]4(C)[C@H]3CC[C@]12C)OS(=O)(=O)O [Squalamine, squalamine]
- post-orchiectomy PSA nadir ([1]; 20 mg/kg/day i.p. five days per week, 6-10 weeks from castration, six animals): less than 1 ng/mL
- tumor masses ([1]; 20 mg/kg/day i.p. from castration): eventually disappeared in all six animals
- expression of the integrin α6β4 [1, 4]: increase
- expression of the integrin αvβ3 [1, 4]: reduction in the expression
- tumor growth, monotherapy [2]: minimal effects on tumor growth
- AGD ([3]; absolute tumor growth delay): 0 days
- Time to Grow From 8 to 12 mm ([3]; squalamine 20 mg/kg/day b.i.d. for 11-14 days, 15 Gy gamma irradiation): 6 days
- effect on human NHE3 antiporter (pH change rate) (human NHE3; 7 μg/ml squalamine, acid loaded cells): inhibits human NHE3
- time before NHE3 inhibition effect was observed (human NHE3; transfected cells): at least 30 minutes
- NHE1 activity in unstimulated melanoma cells (NHE1): substantially down regulates the activity of the antiporter
